From patent publication US20070167353A1, “PRODRUG COMPOSITION” (priority 2003, published 2007)
Where two headings read alike, the source gives them in different places.

Experiments:
vaccinia virus = experiment: microbe, parasite or virus in culture; assay type: cell-based; settings: read-out: Vaccinia Plaque Reduction (IC50)
Caco-2 monolayers = experiment: Caco-2 monolayer transport and stability; assay type: in vitro ADME; settings: for Permeability: apical to basolateral, 0.2 mM drug, apical pH 6.0, n = 3; for Stability (% remaining) Apical chamber (donor): percent prodrug remaining in donor solution at 120 minutes; for Stability (% remaining) Basolateral chamber (receiver): percent prodrug remaining in receiver solution at 120 minutes
Protocol: (§1) The transepithelial transport of Ara A, 5′-O-L-valyl Ara A, 5′-O-L-isoleucyl Ara A is tested in Caco-2 monolayers grown in transwell filters following standard procedures as described in detail in Landowski, C. P. et al., Pharm Res, 2005. 22(9): p. 1510-8. In these experiments, transport studies are performed 21 days post-seeding. The assay is initiated by adding drug transport solution (0.2 mM drug in MES buffer, pH 6.0 containing 5 mM D-glucose, 5 mM MES, 1 mM CaCl2, 1 mM MgCl2, 150 mM NaCl, 3 mM KCl, 1 mM NaH2PO4) to the apical chamber of the Caco-2 insert. Two hundred microliter aliquots are withdrawn from the basolateral chamber at predetermined intervals and replaced with fresh HEPES pH 7.4 buffer. The epithelial integrity of representative cell monolayers is assessed by monitoring transepithelial resistance. In these assays, the stability of the drug in both chambers of the insert is also monitored. […] Importantly, the prodrugs are stable, showing minimal metabolism to Ara A and Ara-H over a 2-hour time frame.

[1] = Intestinal absorption after direct duodenal injection in anesthetized rats, plasma by LC/MS/MS; settings: for AUC0-4 hr of Prodrug: rat plasma, duodenal injection of the named prodrug
Protocol: The systemic plasma profiles of the prodrug, Ara A, and its main metabolite, Ara H are then monitored by removing plasma from a jugular vein cannula over a 4 hour period and assaying by LC/MS/MS assay.
Animals were dosed with Ara A at a level of 1.5 mg/rat via direct duodenal injection into anesthetized rats (n=2 per compound). Plasma samples were taken from the jugular vein at 0, 1, 2, and 4 hours from the jugular vein and were assayed for Ara A (▪), and Ara H (♦) by LC/MS/MS.
Animals were dosed with 5′-O-L isoleucyl Ara A prodrug at a level of 2.7 mg/rat via direct duodenal injection into anesthetized rats (n=3 per compound). Plasma samples were taken from the jugular vein at 0, 0.5, 1, 2, and 4 hours from the jugular vein and were assayed for prodrug (□), Ara A (▪), and Ara H (♦) by LC/MS/MS.
(§2) FIG. 6 is a graph showing mean plasma profiles of Ara A, Ara H, and 5′-O-D Isoleucyl Ara A after administration of 5′-O-D Isoleucyl Ara A into the duodenum of a rat. Animals were dosed with 5′-O-D Isoleucyl Ara A prodrug at a level of 2.7 mg/rat via direct duodenal injection into anesthetized rats (n=2). Plasma samples were taken from the jugular vein at 0, 0.5, 1, 2, and 4 hours from the jugular vein and were assayed for prodrug (□), Ara A (▪), and Ara H (♦) by LC/MS/MS.
as §2, with “7” for “6”, “5′-O-L Valyl” for “5′-O-D Isoleucyl”, “3” for “2.7”
as §2, with “FIG. 8” for “FIG. 6”, “5′-O-D Valyl” for “5′-O-D Isoleucyl”, “of 3.0” for “of 2.7”, “rats (n=3).” for “rats (n=2).”, “and ara” for “and Ara”
as §2, with “9” for “6”, “5′-O-Glycyl” for “5′-O-D Isoleucyl”, “3.0” for “2.7”

[2] = Caco-2 cell homogenates, n = 3
[3] = target: T1, human dipeptide transporter, hPept1 (Homo sapiens, UniProt P46059); settings: for HeLa/hPEPT1 uptake: pH 6
T1 sequence (P46059 1-708): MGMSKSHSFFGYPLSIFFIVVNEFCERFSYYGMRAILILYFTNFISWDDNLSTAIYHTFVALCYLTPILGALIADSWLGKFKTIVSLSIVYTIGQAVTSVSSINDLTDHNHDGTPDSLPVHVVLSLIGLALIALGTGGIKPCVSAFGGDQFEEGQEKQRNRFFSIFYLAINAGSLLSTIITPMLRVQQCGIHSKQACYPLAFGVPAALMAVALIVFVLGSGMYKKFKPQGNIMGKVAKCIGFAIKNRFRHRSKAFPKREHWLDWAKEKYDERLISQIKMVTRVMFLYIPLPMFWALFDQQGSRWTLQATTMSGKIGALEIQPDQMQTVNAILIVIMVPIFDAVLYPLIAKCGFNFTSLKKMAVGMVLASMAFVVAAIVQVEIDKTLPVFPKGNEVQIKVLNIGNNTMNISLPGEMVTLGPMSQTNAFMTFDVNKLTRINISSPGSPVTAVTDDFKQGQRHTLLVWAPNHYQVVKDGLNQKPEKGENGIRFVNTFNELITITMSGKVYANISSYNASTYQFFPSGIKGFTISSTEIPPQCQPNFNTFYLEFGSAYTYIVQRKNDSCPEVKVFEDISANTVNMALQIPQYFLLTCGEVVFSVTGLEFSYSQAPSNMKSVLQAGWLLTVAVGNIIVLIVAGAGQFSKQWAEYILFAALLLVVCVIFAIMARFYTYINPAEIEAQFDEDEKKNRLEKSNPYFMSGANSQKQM

KB cell [4] = experiment: KB cell cytotoxicity; settings: read-out: KB cell cytotoxicity (IC50)
KB cell [5] = tested on: KB cell
[6] = buffer
Cowpox = experiment: organism not typed; assay type: cell-based; settings: read-out: Cowpox Plaque Reduction (IC50)
adenosine deaminase = experiment: Stability in the presence of adenosine deaminase; assay type: biochemical; settings: FIG. 3A
[7] = Caco-2 monolayer transport and stability; assay type: in vitro ADME; settings: human, Caco-2, pH 6
Protocol: as §1

[8] = Solubility testing in water; assay type: physicochemical; settings: thermodynamic from solid; water added dropwise to 5 mg
Protocol: Water is added dropwise to 5 mg of each prodrug with intermittent stirring until the drug is fully dissolved. All of the Ara A prodrugs dissolved prior to the addition of 0.19 ml of water or at a concentration>26 mg/ml water. In contrast, unmodified Ara A is poorly soluble (<0.5 mg/ml) under these conditions.

KB cell cytotoxicity = settings: human, KB cells
[9] = Orthopoxvirus vaccinia, HFF, 72 h

Structure (SMILES): CC[C@H](C)[C@H](N)C(=O)OC[C@H]1O[C@@H](n2cnc3c(N)ncnc32)[C@@H](O)[C@@H]1O [5′-O-L-isoleucyl Ara A]
- IC50 (vaccinia virus; HFF cells, 3 days): 4.5 µM
- Permeability (Caco-2 monolayers): 5.66 ± 0.14 ×10^−6, cm/s
- Stability (% remaining) Apical chamber (donor) (Caco-2 monolayers): 89.6%
- Stability (% remaining) Basolateral chamber (receiver) (Caco-2 monolayers): 77.5%
- AUC0-4 hr of Prodrug [1]: 658 ± 314 ng·h/mL
- fold increase in circulating Ara A levels over dosing with Ara A ([1]; rat, duodenal injection): > 20 fold
- percent of total drug measured in plasma found to be Ara-H ([1]; rat, in vivo): ~15%
- percent of total drug measured in plasma present as Ara A ([1]; rat, in vivo): approximately 17%
- percent of total drug measured in plasma present as prodrug ([1]; rat, in vivo): ~68%
- t1/2 Caco-2 [2]: 27.0 ± 1.3 min
- hPepT1/Control [3]: 26.9
- HeLa/hPEPT1 uptake [3]: 202.0 ± 4.8
- IC50 (KB cell [4]): > 100 µM

Structure (SMILES): Nc1ncnc2c1ncn2[C@@H]1O[C@H](COC(=O)[C@@H](N)Cc2ccccc2)[C@@H](O)[C@@H]1O [5′-O-L-phenylalanyl Ara A]
- IC50 (vaccinia virus; HFF cells, 3 days): 20 µM
- IC50 (KB cell [5]): > 100 µM
- t1/2 pH 7.4 [6]: 420.9 ± 40.1 min
- t1/2 Caco-2 [2]: 3.5 ± 1.0 min

Structure (SMILES): Nc1ncnc2c1ncn2[C@@H]1O[C@H](COC(=O)[C@@H]2CCCN2)[C@@H](O)[C@@H]1O [5′-O-L-prolyl Ara A]
- IC50 (vaccinia virus; HFF cells, 3 days): 12 µM
- IC50 (KB cell [5]): 45 µM
- t1/2 pH 7.4 [6]: 20.1 ± 1.0 min
- t1/2 Caco-2 [2]: 1.3 ± 0.005 min
- hPepT1/Control [3]: 1.06
- HeLa/hPEPT1 uptake [3]: 40.8 ± 1.0

Structure (SMILES): CC(C)[C@H](N)C(=O)OC[C@H]1O[C@@H](n2cnc3c(N)ncnc32)[C@@H](O)[C@@H]1O [5′-O-L-valyl Ara A]
- IC50 (vaccinia virus; HFF cells, 3 days): 12 µM
- Permeability (Caco-2 monolayers): 3.86 ± 0.03 ×10^−6, cm/s
- Stability (% remaining) Apical chamber (donor) (Caco-2 monolayers): 82.1%
- Stability (% remaining) Basolateral chamber (receiver) (Caco-2 monolayers): 62.0%
- AUC0-4 hr of Prodrug [1]: 195 ± 25 ng·h/mL
- plasma Ara A levels after dosing (in words) ([1]; rat, duodenal injection): Increased levels of plasma Ara A
- t1/2 Caco-2 [2]: 11.1 ± 0.4 min
- hPepT1/Control [3]: 20.7
- HeLa/hPEPT1 uptake [3]: 80.3 ± 1.1
- IC50 (KB cell [4]): 65 µM

Structure (SMILES): Nc1ncnc2c1ncn2[C@@H]1O[C@H](CO)[C@@H](O)[C@@H]1O [Ara A, Adenine 9-beta-D-arabinofuranoside, reference compound]
- IC50 (vaccinia virus; [9]): 5 µM
- IC50 (Cowpox): 6.5 µM
- deamination by adenosine deaminase (in words) (adenosine deaminase): rapidly hydrolyzed
- Papp A→B at 2 h, 0.2 mM [7]: 1.42 ± 0.05 ×10⁻⁶ cm/s
- solubility [8]: < 500 µg/mL
- IC50 (KB cell cytotoxicity): > 100 µM

Structure (SMILES): O=c1[nH]cnc2c1ncn2[C@@H]1O[C@H](CO)[C@@H](O)[C@@H]1O [Ara-H, 9-(beta-D-arabinofuranosyl) hypoxanthine]
- IC50 (Cowpox): > 100 µM

Structure (SMILES): Nc1ccn(C[C@@H](CO)OCP(=O)(O)O)c(=O)n1 [Cidofovir, reference compound]
- IC50 (vaccinia virus; [9]): 26 µM
- IC50 (Cowpox): 30 µM
- IC50 (KB cell cytotoxicity): > 100 µM
